Reference: ChEMBL document CHEMBL2440076, “New triarylpyrazoles as broad-spectrum anticancer agents: design, synthesis, and biological evaluation” (Eur J Med Chem, 2013)
pIC50: −log10 of the molar value.

How the values were obtained:
[1] = tested on: U-251; assay: Growth inhibition of human U251 cells assessed as cell growth at 5X10'-9 M after 48 hrs by sulforhodamine B assay; type: functional; conditions: U-251, 48 h, read-out: Activity
[2] = tested on: COLO 205; assay: Growth inhibition of human COLO205 cells assessed as cell growth at 5X10'-6 M after 48 hrs by sulforhodamine B assay; type: functional; conditions: COLO 205, 48 h, read-out: Activity
[3] = Growth inhibition of human HCC2998 cells assessed as cell growth at 5X10'-5 M after 48 hrs by sulforhodamine B assay; type: functional; conditions: HCC 2998, 48 h, read-out: Activity
[4] = tested on: MDA-MB-231; assay: Growth inhibition of human MDA-MB-231 cells assessed as cell growth at 10 uM after 48 hrs by sulforhodamine B assay; type: functional; conditions: MDA-MB-231, 48 h, read-out: Activity
[5] = tested on: BT-549; assay: Growth inhibition of human BT549 cells after 48 hrs by sulforhodamine B assay; type: functional; conditions: BT-549, 48 h
[6] = tested on: SR; assay: Growth inhibition of human SR cells after 48 hrs by sulforhodamine B assay; type: functional; conditions: for CC50: read-out: LC50 (the source's name)
[7] = tested on: A549; assay: Growth inhibition of human A549/ATCC cells assessed as cell growth at 5X10'-9 M after 48 hrs by sulforhodamine B assay; type: functional; conditions: A549, 48 h, read-out: Activity
[8] = tested on: A498; assay: Growth inhibition of human A498 cells assessed as cell growth at 10 uM after 48 hrs by sulforhodamine B assay; type: functional; conditions: A498, 48 h, read-out: Activity
[9] = tested on: T47D; assay: Growth inhibition of human T47D cells after 48 hrs by sulforhodamine B assay; type: functional; conditions: for CC50: read-out: LC50 (the source's name)
[10] = tested on: LOX IMVI; assay: Growth inhibition of human LOXIMVI cells assessed as cell growth at 5X10'-6 M after 48 hrs by sulforhodamine B assay; type: functional; conditions: read-out: Activity
[11] = Growth inhibition of human NCI-ADR-RES cells assessed as cell growth at 5X10'-5 M after 48 hrs by sulforhodamine B assay; type: functional; conditions: read-out: Activity
[12] = tested on: CCRF-CEM; assay: Growth inhibition of human CCRF-CEM cells assessed as cell growth at 10 uM after 48 hrs by sulforhodamine B assay; type: functional; conditions: read-out: Activity
[13] = tested on: MCF7; assay: Growth inhibition of human MCF7 cells assessed as cell growth at 5X10'-7 M after 48 hrs by sulforhodamine B assay; type: functional; conditions: MCF7, 48 h, read-out: Activity
[14] = tested on: HCT-15; assay: Growth inhibition of human HCT15 cells assessed as cell growth at 5X10'-6 M after 48 hrs by sulforhodamine B assay; type: functional; conditions: HCT-15, 48 h, read-out: Activity
[15] = tested on: UO-31; assay: Growth inhibition of human UO31 cells assessed as cell growth at 5X10'-8 M after 48 hrs by sulforhodamine B assay; type: functional; conditions: UO-31, 48 h, read-out: Activity
[16] = tested on: HCT-116; assay: Growth inhibition of human HCT116 cells assessed as cell growth at 10 uM after 48 hrs by sulforhodamine B assay; type: functional; conditions: HCT-116, 48 h, read-out: Activity
[17] = Growth inhibition of human HCC2998 cells assessed as cell growth at 5X10'-6 M after 48 hrs by sulforhodamine B assay; type: functional; conditions: HCC 2998, 48 h, read-out: Activity
[18] = tested on: NCI-H226; assay: Growth inhibition of human NCI-H226 cells assessed as cell growth at 5X10'-5 M after 48 hrs by sulforhodamine B assay; type: functional; conditions: NCI-H226, 48 h, read-out: Activity
[19] = tested on: ACHN; assay: Growth inhibition of human ACHN cells after 48 hrs by sulforhodamine B assay; type: functional; conditions: for CC50: read-out: LC50 (the source's name)
[20] = tested on: MOLT-4; assay: Growth inhibition of human MOLT4 cells assessed as cell growth at 5X10'-7 M after 48 hrs by sulforhodamine B assay; type: functional; conditions: MOLT-4, 48 h, read-out: Activity
[21] = tested on: Malme-3M; assay: Growth inhibition of human MALME-3M cells assessed as cell growth at 5X10'-6 M after 48 hrs by sulforhodamine B assay; type: functional; conditions: read-out: Activity
[22] = Growth inhibition of human HCC2998 cells assessed as cell growth at 5X10'-8 M after 48 hrs by sulforhodamine B assay; type: functional; conditions: HCC 2998, 48 h, read-out: Activity
[23] = tested on: NCI-H226; assay: Growth inhibition of human NCI-H226 cells assessed as cell growth at 5X10'-9 M after 48 hrs by sulforhodamine B assay; type: functional; conditions: NCI-H226, 48 h, read-out: Activity
[24] = tested on: KM12; assay: Growth inhibition of human KM12 cells after 48 hrs by sulforhodamine B assay; type: functional, cell-based; conditions: KM12, 48 h; for CC50: read-out: LC50 (the source's name)
[25] = tested on: SK-MEL-2; assay: Growth inhibition of human SK-MEL-2 cells assessed as cell growth at 5X10'-7 M after 48 hrs by sulforhodamine B assay; type: functional; conditions: SK-MEL-2, 48 h, read-out: Activity
[26] = tested on: OVCAR-8; assay: Growth inhibition of human OVCAR8 cells assessed as cell growth at 5X10'-5 M after 48 hrs by sulforhodamine B assay; type: functional; conditions: OVCAR-8, 48 h, read-out: Activity
[27] = tested on: SF-539; assay: Growth inhibition of human SF539 cells after 48 hrs by sulforhodamine B assay; type: functional; conditions: SF-539, 48 h
[28] = tested on: UACC-62; assay: Growth inhibition of human UACC62 cells assessed as cell growth at 5X10'-5 M after 48 hrs by sulforhodamine B assay; type: functional; conditions: UACC-62, 48 h, read-out: Activity
[29] = tested on: MCF7; assay: Growth inhibition of human MCF7 cells assessed as cell growth at 10 uM after 48 hrs by sulforhodamine B assay; type: functional; conditions: MCF7, 48 h, read-out: Activity
[30] = tested on: CCRF-CEM; assay: Growth inhibition of human CCRF-CEM cells assessed as cell growth at 5X10'-9 M after 48 hrs by sulforhodamine B assay; type: functional; conditions: read-out: Activity
[31] = tested on: NCI-H460; assay: Growth inhibition of human NCI-H460 cells after 48 hrs by sulforhodamine B assay; type: functional; conditions: NCI-H460, 48 h
[32] = tested on: A498; assay: Growth inhibition of human A498 cells assessed as cell growth at 5X10'-9 M after 48 hrs by sulforhodamine B assay; type: functional; conditions: A498, 48 h, read-out: Activity
[33] = tested on: DU-145; assay: Growth inhibition of human DU145 cells assessed as cell growth at 5X10'-8 M after 48 hrs by sulforhodamine B assay; type: functional; conditions: DU-145, 48 h, read-out: Activity
[34] = tested on: COLO 205; assay: Growth inhibition of human COLO205 cells after 48 hrs by sulforhodamine B assay; type: functional; conditions: COLO 205, 48 h
[35] = tested on: CAKI-1; assay: Growth inhibition of human CAKI-1 cells assessed as cell growth at 5X10'-8 M after 48 hrs by sulforhodamine B assay; type: functional; conditions: CAKI-1, 48 h, read-out: Activity
[36] = tested on: NCI-H460; assay: Growth inhibition of human NCI-H460 cells assessed as cell growth at 5X10'-6 M after 48 hrs by sulforhodamine B assay; type: functional; conditions: NCI-H460, 48 h, read-out: Activity

In the case of `O=C(Nc1cccc(-n2cc(-c3ccncc3)c(-c3ccc(Cl)c(O)c3)n2)c1)Nc1cc(C(F)(F)F)cc(C(F)(F)F)c1`, the growth at 0.005 µM [1] was 95%, the growth at 5 µM [2] was -94% and the growth at 50 µM [3] was -90%. The growth at 10 µM [4] was -88.9%, the GI50 [5] was 1090 nM and the LC50 (50% lethal concentration) [5] was 4110 nM. It also gave a TGI [5] of 2120 nM, a GI50 [6] of 922 nM and a TGI [6] of 3660 nM. For the same molecule, the CC50 [6] was greater than 50000 nM, the growth at 0.005 µM [7] was 96% and the growth at 10 µM [8] was -18.6%. The GI50 [9] was 1820 nM, the TGI [9] was 14000 nM and the CC50 [9] was greater than 50000 nM. It also gave a growth at 5 µM [10] of -94%, a growth at 50 µM [11] of -56% and a growth at 10 µM [12] of -16%. It also gave a growth at 0.5 µM [13] of 52%, a growth at 5 µM [14] of -9% and a growth at 0.05 µM [15] of 89%. For the same molecule, the growth at 10 µM [16] was -59.1%, the growth at 5 µM [17] was -43% and the growth at 50 µM [18] was -58%. The GI50 [19] was 624 nM, the TGI [19] was 5270 nM and the CC50 [19] was 17300 nM. It also gave a growth at 0.5 µM [20] of 81%, a growth at 5 µM [21] of -21% and a growth at 0.05 µM [22] of 105%. For the same molecule, the growth at 0.005 µM [23] was 98%, the GI50 [24] was 506 nM and the pIC50 [24] was 6.29. For the same molecule, the TGI [24] was 1430 nM, the CC50 [24] was 4060 nM and the growth at 0.5 µM [25] was 101%. The growth at 50 µM [26] was -53%, the GI50 [27] was 765 nM and the LC50 (concentration killing 50% of cells) [27] was 2890 nM. For the same molecule, the TGI [27] was 1490 nM, the growth at 50 µM [28] was -89% and the growth at 10 µM [29] was 2.71%. The growth at 0.005 µM [30] was 95%, the GI50 [31] was 413 nM and the LC50 [31] was 4860 nM. The TGI [31] was 1480 nM, the growth at 0.005 µM [32] was 79% and the growth at 0.05 µM [33] was 109%. The GI50 [34] was 853 nM, the LC50 (concentration killing 50% of cells) [34] was 2920 nM and the TGI [34] was 1580 nM. It also gave a growth at 0.05 µM [35] of 92% and a growth at 5 µM [36] of -51%.
`O=C(Nc1cccc(-n2cc(-c3ccncc3)c(-c3ccc(Cl)c(O)c3)n2)c1)c1ccc(N2CCOCC2)c(C(F)(F)F)c1` showed a growth at 0.005 µM [1] of 101%, a growth at 5 µM [2] of 87% and a growth at 50 µM [3] of 4%. It also gave a growth at 10 µM [4] of 23.4%, a GI50 [5] of 19400 nM and an LC50 (50% lethal concentration) [5] greater than 50000 nM. The TGI [5] was greater than 50000 nM, the GI50 [6] was 1630 nM and the TGI [6] was greater than 50000 nM. The CC50 [6] was greater than 50000 nM, the growth at 0.005 µM [7] was 102% and the growth at 10 µM [8] was 101%. The GI50 [9] was 35900 nM, the TGI [9] was greater than 50000 nM and the CC50 [9] was greater than 50000 nM. It also gave a growth at 5 µM [10] of 10%, a growth at 50 µM [11] of 16% and a growth at 10 µM [12] of 27.9%. The growth at 0.5 µM [13] was 78%, the growth at 5 µM [14] was 18% and the growth at 0.05 µM [15] was 88%. For the same molecule, the growth at 10 µM [16] was 29.6%, the growth at 5 µM [17] was 53% and the growth at 50 µM [18] was 58%. For the same molecule, the GI50 [19] was 1920 nM, the TGI [19] was greater than 50000 nM and the CC50 [19] was greater than 50000 nM. The growth at 0.5 µM [20] was 87%, the growth at 5 µM [21] was -9% and the growth at 0.05 µM [22] was 99%. It also gave a growth at 0.005 µM [23] of 98%, a GI50 [24] of 1940 nM and a TGI [24] greater than 50000 nM. For the same molecule, the CC50 [24] was greater than 50000 nM, the growth at 0.5 µM [25] was 102% and the growth at 50 µM [26] was 26%. For the same molecule, the GI50 [27] was 1370 nM, the LC50 (concentration killing 50% of cells) [27] was greater than 50000 nM and the TGI [27] was 17300 nM. It also gave a growth at 50 µM [28] of -30%, a growth at 10 µM [29] of 60.6% and a growth at 0.005 µM [30] of 98%. For the same molecule, the GI50 [31] was 1720 nM, the LC50 [31] was greater than 50000 nM and the TGI [31] was 14800 nM. For the same molecule, the growth at 0.005 µM [32] was 92%, the growth at 0.05 µM [33] was 97% and the GI50 [34] was greater than 50000 nM. For the same molecule, the LC50 (concentration killing 50% of cells) [34] was greater than 50000 nM, the TGI [34] was greater than 50000 nM and the growth at 0.05 µM [35] was 99%. For the same molecule, the growth at 5 µM [36] was 9%.
